Data: US11065249B2, “Diacylglycerol acyl transferase 2 inhibitor” (Pfizer Inc., priority 2019, dated 2021)
Structures can show the parent of a compound that is named as a salt.

Columns and labels:
[1] = Intrinsic clearance in human liver microsomes; assay type: in vitro ADME; settings: 1 μM test compound, mean +/− STD Dev; for microsomal CLint at 1 μM: human, pooled human liver microsomes, pH 7.4, human liver microsome assay; for CLint (+/−STD Dev): human liver microsome assay
Description: The incubations were conducted at 37° C. […] (Sorvall R C 3C Plus, Thermo Scientific, Waltham, Mass.).

human DGAT2 (hDGAT2) = human DGAT2 (hDGAT2) (Homo sapiens (Human), UniProt Q96PD7); experiment: In vitro DGAT2 assay, determination of IC50 values for DGAT2 inhibitors; assay type: biochemical; settings: inhibition of DGAT2, hDGAT2 membrane fractions; geometric mean
Description: Recombinant baculovirus for the FLAG-tagged hDGAT2 was generated in SF9 insect cells using Bac-to-Bac baculovirus expression system (Invitrogen) according to the manufacturer's protocol. For the expression of hDGAT2, SF9 cells (20 L) grown in Sf900II media were infected with hDGAT2 baculovirus at a multiplicity of infection of 1 in a Wave Bioreactor System 20/50P wave bag (GE Healthcare). After 40 hours of infection, the cells were then harvested by centrifugation at 5,000×g. The cell pellets were washed by resuspending in phosphate buffered saline (PBS) and collected by centrifugation at 5,000×g. The cell paste was flash frozen in liquid N2 and stored at −80° C. until needed. All operations below were at 4° C. unless otherwise noted. The cells were resuspended in lysis buffer (50 mM Tris-HCl, pH 8.0, 250 mM sucrose) including 1 mM ethylenediaminetetraacetic acid (EDTA) and the complete protease inhibitor cocktail (Roche Diagnostics) at a ratio of 3 mL buffer per 1 g cell paste. The cells were lysed by dounce homogenizer. The cell debris was removed by centrifugation at 1,000×g for 20 min, and the supernatant was centrifuged at 100,000×g for 1 hour. The resulting pellet was rinsed three times by filling ultracentrifuge tubes to the top with ice cold PBS before decanting. The washed pellet was resuspended with gentle stirring for 1 hour in lysis buffer containing 8 mM 3-[(3-cholamidopropyl)dimethylammonio]-1-propanesulfonate (CHAPS) at a ratio of 1 mL buffer per 1 g of original cell paste and centrifuged again at 100,000×g for 1 hour. The resulting supernatant was aliquotted, flash frozen in liquid N2, and stored at −80° C. until use.
To 1 μL of compounds dissolved in 100% DMSO and spotted at the bottom of each well, 5 μL of 0.04% bovine serum albumin (BSA) (fatty acid free, Sigma Aldrich) was added and the mixture was incubated at room temperature for 15 minutes. hDGAT2 membrane fractions were diluted in 100 mM Hepes-NaOH, pH 7.4, 20 mM MgCl2 containing 200 nM methyl arachidonyl fluorophosphonate (Cayman Chemical, dried from ethyl acetate stock solution under argon gas and dissolved in DMSO as 5 mM stock). 10 μL of this enzyme working solution was added to the plates and incubation continued for 2 hours at room temperature. DGAT2 reactions were initiated by the addition of 4 μL of substrates containing 30 μM [1-^14C]decanoyl-CoA (custom-synthesized by Perkin Elmer, 50 mCi/mmol) and 125 μM 1,2-didecanoyl-sn-glycerol (Avanti Polar Lipids) dissolved in 12.5% acetone. The reaction mixtures were incubated at room temperature for 40 min and the reactions were stopped by addition of 5 μL of 1% H3PO4. After the addition of 45 μL MicroScint-E (Perkin-Elmer), plates were sealed with Top Seal-A covers (Perkin-Elmer) and phase partitioning of substrates and products was achieved using a HT-91100 microplate orbital shaker (Big Bear Automation, Santa Clara, Calif.). Plates were centrifuged at 2,000×g for 1 minute in an Allegra 6R Centrifuge (Beckman Coulter) and then were sealed again with fresh covers before reading in a 1450 Microbeta Wallac Trilux Scintillation Counter (Perkin Elmer). DGAT2 activity was measured by quantifying the generated product [^14C]tridecanoylglycerol in the upper organic phase.
Inhibitors were tested at eleven different concentrations to generate IC50 values for each compound.

[2] = Determination of pKa (capillary electrophoresis, Analiza); assay type: physicochemical; settings: most basic pKa, mean
[3] = High throughput determination of intrinsic clearance in human hepatocytes; assay type: in vitro ADME; settings: human, pooled cryopreserved human hepatocytes (suspension), high throughput human hepatocyte assay, 1 μM test compound; mean +/− Std Dev
Description: The incubation was carried out at 37° C. […] The samples were centrifuged (Eppendorf, Hauppauge, N.Y.) at 3000 rpm for 5 min at 4° C.

Chain of human DGAT2 (hDGAT2) (Q96PD7 whole entry): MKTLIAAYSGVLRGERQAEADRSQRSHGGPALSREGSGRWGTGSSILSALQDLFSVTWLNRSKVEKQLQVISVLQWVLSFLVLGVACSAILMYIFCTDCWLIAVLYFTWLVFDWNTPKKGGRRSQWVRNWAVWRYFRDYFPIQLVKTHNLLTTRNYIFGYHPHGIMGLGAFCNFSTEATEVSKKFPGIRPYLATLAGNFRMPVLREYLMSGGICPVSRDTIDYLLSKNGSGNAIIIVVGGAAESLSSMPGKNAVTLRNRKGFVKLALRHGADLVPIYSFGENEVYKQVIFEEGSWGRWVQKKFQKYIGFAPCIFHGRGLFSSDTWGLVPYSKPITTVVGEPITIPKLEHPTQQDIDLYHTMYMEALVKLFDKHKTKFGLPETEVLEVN

Structure (SMILES) | microsomal CLint at 1 μM [1] | IC50 (human DGAT2 (hDGAT2)) | pKa [2] | hepatocyte CLint at 1 μM [3] | further results
CCOc1cccnc1Oc1cncc(-c2ncc(C(=O)NC3CCCNC3C)cn2)c1 (mixture of isomers) [Example 23, 2-{5-[(3-ethoxypyridin-2-yl)oxy]pyridin-3-yl}-N-(2-methylpiperidin-3-yl)pyrimidine-5-carboxamide, trifluoroacetate salt, mixture of stereoisomers] | < 8 µL/min/mg | – | – | – | –
CCOc1cccnc1Oc1cncc(-c2ncc(C(=O)N[C@H]3CCC(C(F)(F)F)NC3)cn2)c1 (single isomer, unassigned) [Example 8, rac-2-{5-[(3-ethoxypyridin-2-yl)oxy]pyridin-3-yl}-N-[(3R,6S)-6-(trifluoromethyl)piperidin-3-yl]pyrimidine-5-carboxamide or rac-2-{5-[(3-ethoxypyridin-2-yl)oxy]pyridin-3-yl}-N-[(3R,6R)-6-(trifluoromethyl)piperidin-3-yl]pyrimidine-5-carboxamide] | < 14 µL/min/mg | 650 nM | 5.3 | – | –
CCOc1cccnc1Oc1cncc(-c2ncc(C(=O)N[C@H]3CNCCC3(F)F)cn2)c1 (single isomer, unassigned) [Example 15, N-[(3S)-4,4-difluoropiperidin-3-yl]-2-{5-[(3-ethoxypyridin-2-yl)oxy]pyridin-3-yl}pyrimidine-5-carboxamide, trifluoroacetate salt or N-[(3R)-4,4-difluoropiperidin-3-yl]-2-{5-[(3-ethoxypyridin-2-yl)oxy]pyridin-3-yl}pyrimidine-5-carboxamide, trifluoroacetate salt] | 21 µL/min/mg | – | – | 5.3 µL/min/1e6 cells | –
CCOc1cccnc1Oc1cncc(-c2ncc(C(=O)N[C@H]3CNCCC3(F)F)cn2)c1 (single isomer, unassigned) [Example 16, N-[(3S)-4,4-difluoropiperidin-3-yl]-2-{5-[(3-ethoxypyridin-2-yl)oxy]pyridin-3-yl}pyrimidine-5-carboxamide, trifluoroacetate salt or N-[(3R)-4,4-difluoropiperidin-3-yl]-2-{5-[(3-ethoxypyridin-2-yl)oxy]pyridin-3-yl}pyrimidine-5-carboxamide, trifluoroacetate salt] | – | 480 nM | 6.4 | – | CLint (+/−STD Dev) ([1]; trifluoroacetate salt): 17 µL/min/mg
CCOc1cccnc1Oc1cncc(-c2ncc(C(=O)NC3CCC(C(F)(F)F)NC3)cn2)c1 (single isomer, unassigned; ent-2) [Example 11, 2-{5-[(3-ethoxypyridin-2-yl)oxy]pyridin-3-yl}-N-[6-(trifluoromethyl)piperidin-3-yl]pyrimidine-5-carboxamide, trifluoroacetate salt, ENT-2] | – | 4.4 nM | 4.5 | – | CLint (+/−STD Dev) [1]: >290 µL/min/mg
CCOc1cc(F)cnc1Oc1cncc(-c2ncc(C(=O)N[C@@H]3CNC[C@@H](F)C3)cn2)c1 [Example 2, 2-{5-[(3-Ethoxy-5-fluoropyridin-2-yl)oxy]pyridin-3-yl}-N-[(3S,5S)-5-fluoropiperidin-3-yl]pyrimidine-5-carboxamide] | < 7 µL/min/mg | – | 7.3 | 3.6 µL/min/1e6 cells | –
CCOc1cc(F)cnc1Oc1cncc(-c2ncc(C(=O)N[C@@H]3CNCC[C@H]3F)cn2)c1 [Example 6, 2-{5-[(3-Ethoxy-5-fluoropyridin-2-yl)oxy]pyridin-3-yl}-N-[(3R,4R)-4-fluoropiperidin-3-yl]pyrimidine-5-carboxamide] | < 7.8 µL/min/mg | – | 7.4 | 4.7 µL/min/1e6 cells | –
CCOc1cc(F)cnc1Oc1cncc(-c2ncc(C(=O)N[C@H]3CNCC[C@@H]3F)cn2)c1 [Example 13, 2-{5-[(3-ethoxy-5-fluoropyridin-2-yl)oxy]pyridin-3-yl}-N-[(3S,4S)-4-fluoropiperidin-3-yl]pyrimidine-5-carboxamide, formate salt] | 35 µL/min/mg | – | 6.7 | 12 µL/min/1e6 cells | –

Further lines, with some results ahead:

microsomal CLint at 1 μM [1] | IC50 (human DGAT2 (hDGAT2)) | pKa [2] | hepatocyte CLint at 1 μM [3] | Structure (SMILES) | further results
8.9 µL/min/mg | 2100 nM | – | – | CCOc1cccnc1Oc1cncc(-c2ncc(C(=O)N[C@H]3CNCC[C@H]3C)cn2)c1 (racemic) [Example 20, rac-2-{5-[(3-ethoxypyridin-2-yl)oxy]pyridin-3-yl}-N-[(3R,4R)-4-methylpiperidin-3-yl]pyrimidine-5-carboxamide, trifluoroacetate salt] | –
< 8 µL/min/mg | 16000 nM | – | – | CCOc1cccnc1Oc1cncc(-c2ncc(C(=O)N[C@@H]3CNCC[C@H]3C)cn2)c1 (racemic) [Example 24, rac-2-{5-[(3-ethoxypyridin-2-yl)oxy]pyridin-3-yl}-N-[(3R,4S)-4-methylpiperidin-3-yl]pyrimidine-5-carboxamide, trifluoroacetate salt] | –
19 µL/min/mg | – | 5.2 | 9.3 µL/min/1e6 cells | CCOc1cccnc1Oc1cncc(-c2ncc(C(=O)N[C@@H]3CNCC(F)(F)C3)cn2)c1 (single isomer, unassigned) [Example 18, N-[(3S)-5,5-difluoropiperidin-3-yl]-2-{5-[(3-ethoxypyridin-2-yl)oxy]pyridin-3-yl}pyrimidine-5-carboxamide or N-[(3R)-5,5-difluoropiperidin-3-yl]-2-{5-[(3-ethoxypyridin-2-yl)oxy]pyridin-3-yl}pyrimidine-5-carboxamide] | –
– | 240 nM | – | – | CCOc1cccnc1Oc1cncc(-c2ncc(C(=O)N[C@@H]3CNCC(F)(F)C3)cn2)c1 (single isomer, unassigned) [Example 19, N-[(3S)-5,5-difluoropiperidin-3-yl]-2-{5-[(3-ethoxypyridin-2-yl)oxy]pyridin-3-yl}pyrimidine-5-carboxamide or N-[(3R)-5,5-difluoropiperidin-3-yl]-2-{5-[(3-ethoxypyridin-2-yl)oxy]pyridin-3-yl}pyrimidine-5-carboxamide] | Basic pKa [2]: 5.2; CLint (+/−STD Dev) [1]: 34 ± 1.9 µL/min/mg
< 7 µL/min/mg | – | 7.5 | < 2.6 µL/min/1e6 cells | CCOc1cccnc1Oc1cncc(-c2ncc(C(=O)N[C@H]3CNCC[C@@H]3F)cn2)c1 [Example 12, 2-{5-[(3-ethoxypyridin-2-yl)oxy]pyridin-3-yl}-N-[(3S,4S)-4-fluoropiperidin-3-yl]pyrimidine-5-carboxamide, trifluoroacetate salt] | –
< 8 µL/min/mg | – | – | < 1.8 µL/min/1e6 cells | CCOc1cccnc1Oc1cncc(-c2ncc(C(=O)N[C@H]3CCCNC3)cn2)c1 [Example 14, 2-{5-[(3-ethoxypyridin-2-yl)oxy]pyridin-3-yl}-N-[(3S)-piperidin-3-yl]pyrimidine-5-carboxamide, trifluoroacetate salt] | –
23 µL/min/mg | – | 5.4 | 8.3 µL/min/1e6 cells | CCOc1cccnc1Oc1cncc(-c2ncc(C(=O)NC3CNCC(F)(F)C3)cn2)c1 (centres unmarked) [Example 17, N-(5,5-difluoropiperidin-3-yl)-2-{5-[(3-ethoxypyridin-2-yl)oxy]pyridin-3-yl}pyrimidine-5-carboxamide] | –
< 8 µL/min/mg | – | – | – | CCOc1cccnc1Oc1cncc(-c2ncc(C(=O)NC3CCCNC3)cn2)c1 (centres unmarked) [Example 21, 2-{5-[(3-ethoxypyridin-2-yl)oxy]pyridin-3-yl}-N-(piperidin-3-yl)pyrimidine-5-carboxamide, trifluoroacetate salt] | –
< 8 µL/min/mg | – | – | – | CCOc1cccnc1Oc1cncc(-c2ncc(C(=O)N[C@@H]3CCCNC3)cn2)c1 [Example 22, 2-{5-[(3-ethoxypyridin-2-yl)oxy]pyridin-3-yl}-N-[(3R)-piperidin-3-yl]pyrimidine-5-carboxamide, trifluoroacetate salt] | –
